Here are results for 79 molecules from the METLIN SMRT retention time set (Domingo-Almenara et al. 2019).

This series in a line: gradient 5% acetonitrile 3 min, to 50% in 2 min, to 85% in 15 min, held 3 min, 100 µL/min. To be noted: column: Zorbax Extend-C18 2.1 x 50 mm; eluents: water / acetonitrile, 0.1% formic acid. Summed up: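 The mobile phases were water and acetonitrile, each with 0.1% formic acid, pumped at 100 μL/min through a Zorbax Extend-C18 column (2.1 × 50 mm, 1.8 μm). Pure standards were injected as mixtures of ~100 molecules and detected by a quadrupole time-of-flight mass spectrometer in positive and negative ionization mode. Retention time came from computationally picked adduct peaks, each inspected by hand.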
For `CCN1CCn2cc(S(=O)(=O)NCc3cccc(C(F)(F)F)c3)cc2C1=O`, the RP-LC retention time was determined as 781 s.
As for `O=C(COc1ccc2c(c1)OCO2)N1CCN(c2cc(N3CCCCC3)ncn2)CC1`, the RP-LC retention time came out at 587 s.
With `CC(C)CC(NC(=O)OCc1ccccc1)C(=O)NC(Cc1c[nH]c2ccccc12)C(=O)O` (centres undefined) the figure was 926 s; with `CC1(C(=O)NCc2ccc(Cl)cc2)CN(S(C)(=O)=O)CC(=O)N1Cc1ccc(F)cc1` (centres undefined), 814 s; with `O=S(=O)(Cc1ccccc1)N1CCC(c2noc(-c3cccnc3)n2)C1` (centres undefined), 822 s.
The result for `COc1cc(Cl)ccc1-c1nc(-c2ccc3c(c2)oc(=O)n3C(C)C)no1` reads 1220 s; that for `CNC(=O)[C@@H]1CN(C(=O)c2cscn2)C[C@H]1c1nc(COC)no1`, 582 s; that for `CCCNc1nc(-c2ccc(OC)cc2)nc2ccccc12`, 734 s.
With `Cc1noc(-c2cccc(OC3CN(C(=O)C4CCOC4)C3)c2)n1` (centres undefined) the figure was 694 s.
For the molecule `O=C1Oc2ccccc2C(=O)/C1=C1/C=C(c2ccccc2)SS1`, the RP-LC retention time turned out to be 1210 s.
With `COc1ccc(C(=O)N2CCC3(C2)C(=O)Nc2ccccc23)cc1` (centres undefined) the figure was 683 s; with `O=C(O)c1cc(-c2ccc(Br)s2)nc2ccccc12`, 1110 s; with `CCN(CCN(C)C)c1ccc(C(=O)O)cc1NS(=O)(=O)c1ccc(Br)cc1`, 648 s.
Consider `CN1C(C(=O)Nc2ccccn2)=C(O)c2sc(Cl)cc2S1(=O)=O`, for which the RP-LC retention time was 793 s.
The result for `CCOc1ccc(NC(=O)c2c(O)c3cccnc3n(-c3ccc(F)cc3)c2=O)cc1` reads 1280 s.
The result for `CCCn1nnc2cc(S(=O)(=O)N3CCCC(C(=O)N4CCN(c5ccccn5)CC4)C3)ccc21` (centres undefined) reads 652 s; that for `CCc1ccc2c(c1)-c1ccccc1S(=O)(=O)N2CC(=O)NCc1ccncc1`, 703 s.
Consider `Cc1nn(-c2ccccc2)c(C)c1S(=O)(=O)N1CCC(C(=O)Nc2ccc(C#N)cc2)CC1`, for which the RP-LC retention time was 938 s.
With `Cc1ccc(NC(=O)N2CCN(c3nc(N)nc4sc(-c5cccnc5)nc34)CC2)cc1` the figure was 799 s; with `Cc1cccc(C)c1-n1ccn(Cc2nc(-c3ccccn3)no2)c(=O)c1=O`, 695 s.
The result for `COCCN(CC(=O)N1CCc2sccc2C1COc1ccccc1)C(=O)COC` (centres undefined) reads 787 s; that for `Cc1ccccc1Nc1c(-c2ccc(N3CCOCC3)cc2)nc2cnccn12`, 822 s; that for `O=C(COc1ccc(Cl)cc1Cl)NCC1CCN(C(=O)Oc2ccccc2)CC1`, 987 s.
With `Cc1ccc(NC(=O)C2CCCN(S(=O)(=O)c3cn(C(C)C)cn3)C2)cc1C` (centres undefined) the figure was 829 s; with `COc1ccc(-c2ncc3c(n2)CCN(S(=O)(=O)c2ccc(Cl)cc2)C3)cc1`, 1100 s; with `O=C(Cc1nnc(-c2cccc(F)c2)o1)N1CCOCC1`, 651 s.
Molecule `Cc1ccc(CNC(=O)CN2CCN(Cc3ccccc3C)C(=O)C2=O)cc1` gave an RP-LC retention time of 779 s.
As for `CCN1c2cc(F)ccc2C(=O)NC12CCN(C(=O)c1ccccc1C)CC2`, the RP-LC retention time was 835 s.
With `Cc1ccccc1Oc1nccn2c(=O)n(CC(=O)Nc3ccccc3)nc12`, the RP-LC retention time was 856 s.
The result for `COc1ccc(C(=O)Nc2c(-c3ccc(F)cc3)nc3cc(C)ccn23)cc1OC` reads 647 s; that for `Cc1ccc(S(=O)(=O)N2CCOCC2)cc1-c1nnc(-c2ccc(F)cc2)o1`, 958 s.
With `O=C(Nc1ccc(Cl)cc1)N1CCCC1c1nc(-c2ccc(F)cc2F)no1` (centres undefined), the RP-LC retention time is 1040 s.
With `Cc1sc(NC(=O)c2ccccc2Br)nc1-c1ccc2c(c1)N(C)C(=O)CO2` the figure was 960 s; with `CC(C)OCCCNC(=O)c1ccc2c(c1)NC(=O)C(C(C)C)N2` (centres undefined), 688 s; with `CCOC(=O)c1noc2ncnc(NCCCN3CCCc4ccccc43)c12`, 1240 s.
Turning to `CC(NC(=O)Cc1ccccc1F)C(=O)Nc1nc2ccccc2[nH]1` (centres undefined), the RP-LC retention time turned out to be 638 s.
Regarding `CC1(C(=O)N2CC=C(c3ccccc3)CC2)CCCCC(=O)N1` (centres undefined), the RP-LC retention time was found to be 736 s.
The result for `O=C(NCc1ccccc1F)C1CCCN(c2nccnc2Sc2ccccc2)C1` (centres undefined) reads 1050 s.
Turning to `CC(C)n1c(=O)sc2cc(S(=O)(=O)N3CCC(C(=O)N4CCc5ccccc54)CC3)ccc21`, the RP-LC retention time worked out at 1020 s.
In turn, `CC1CCN(c2cnn(CC(=O)Nc3cccc(C(C)C)c3)c(=O)c2Cl)CC1` yielded an RP-LC retention time of 1100 s.
The result for `Cn1c(=O)n([C@H]2CCN(C(=O)Nc3ccc4c(c3)OCCO4)C2)c2ncccc21` reads 686 s.
The result for `CCC(=O)N1CCCC1COc1ccc(C(=O)N2CCCC2)cc1` (centres undefined) reads 712 s.
Molecule `O=C(Nc1ccc(F)cc1)C1CCCN(S(=O)(=O)c2c[nH]c(C(=O)N3CCCC3)c2)C1` (centres undefined) registered an RP-LC retention time of 787 s.
With `CCOC(=O)c1cncn1C(C)c1ccccc1` (centres undefined), the RP-LC retention time came out at 774 s.
The result for `CC(C)CNC(=O)c1sc2ncccc2c1-n1cccc1` reads 971 s.
With `O=S(=O)(c1cccn2c(SCc3ccc(F)cc3)nnc12)N1CCc2ccccc2C1` the figure was 944 s; with `O=C(c1cccc(Cl)c1)N1CCN(S(=O)(=O)c2cc3c4c(c2)CCC(=O)N4CCC3)CC1`, 843 s.
With `CCOc1ccc(OCC)c(NC(=O)CSc2cc(N3CCC(C(=O)NC4CC4)CC3)ncn2)c1` the figure was 860 s; with `Cc1nn(C)c(C)c1CCC(=O)N1CCN(c2ncccn2)CC1`, 564 s.
`Cc1cccc(N2CCN(c3ccc4cc(S(=O)(=O)N5CCCC5)ccc4n3)CC2)c1C` registered an RP-LC retention time of 1150 s.
The result for `CCCCNC(=O)C(C)n1nc(C)c2nn(-c3ccccc3)c(C)c2c1=O` (centres undefined) reads 864 s.
Turning to `CCOc1ccc(CN2CCN(C(=O)c3ccc(C#N)cc3)CC2)cn1`, the RP-LC retention time is 596 s.
Take `COc1ccc(OC)c(NC(=O)N2CCC(N3CCN(Cc4ccc(F)cc4)C(=O)C3=O)CC2)c1`: the RP-LC retention time turned out to be 773 s.
Turning to `COCCCNC(=O)c1cc(-c2ccccc2)nc2n[nH]c(-c3ccccc3)c12`, the RP-LC retention time was determined as 769 s.
`Cc1nc(Nc2ccccn2)sc1C(=O)N1CCc2ccccc2C1` returned an RP-LC retention time of 829 s.
`O=C(Nc1ccc(F)cc1)C1CCCN(c2cnc3nccnc3c2)C1` (centres undefined) returned an RP-LC retention time of 736 s.
With `Cc1ccc(NC(=O)Nc2nccn(-c3cccc(F)c3)c2=O)cc1C` the figure was 1020 s; with `Cc1oc(C2CCC2)nc1C(=O)N1CCN(Cc2ccc3c(c2)OCO3)CC1`, 583 s.
In turn, `CC(C)n1c(=O)oc2cc(-c3noc(CCc4ccccc4)n3)ccc21` returned an RP-LC retention time of 1140 s.
In the case of `Cc1ccnc(N2CCC(C(=O)NC(C)c3ccc4c(c3)OCCO4)CC2)n1` (centres undefined), the RP-LC retention time was 672 s.
With `O=C(COc1ccc(Cl)cc1)Nc1nc(-c2ccc(S(=O)(=O)N3CCOCC3)cc2)cs1` the figure was 1040 s; with `CN(Cc1cccnc1)C(=O)c1c(OCC2CC2)cc(=O)n2c1CCCCC2`, 587 s; with `Cc1ccc(NC(=O)C2CCCN(c3nccnc3Sc3ccc(C)cc3)C2)cc1` (centres undefined), 1200 s.
For the molecule `CCOC(=O)C1CCN(C(=O)CCC2CCN(c3cc(NC4CC4)ncn3)CC2)CC1`, the RP-LC retention time turned out to be 586 s.
`O=C(NCc1ccc(F)cc1)C1=C2CCCN2c2ccc(F)cc2S1(=O)=O` had an RP-LC retention time of 864 s.
The result for `Cc1oc(-c2ccc(NC(=O)CC(C)(C)C)cc2)nc1Cn1cccn1` reads 883 s; that for `Cc1ccc(N2C(=O)c3ccc(C(=O)N4CCN(c5ccccc5F)CC4)cc3C2=O)cc1`, 982 s.
For the molecule `CC(CCNC(=O)C(C)n1c2ccccc2c2cnn(C)c(=O)c21)N1CCCC1` (centres undefined), the RP-LC retention time stood at 612 s.
With `COC(=O)C1CCN(c2ccnc3c2c(=O)n(C)c(=O)n3C)CC1` the figure was 660 s; with `CSCc1noc(Cn2ccc3ccn(CCN(C)C)c3c2=O)n1`, 597 s.
With `Cc1nc(-c2csc(S(=O)(=O)N3CCCC(C(=O)Nc4ccc(C#N)cc4)C3)c2)no1` (centres undefined), the RP-LC retention time stood at 935 s.
The result for `Cc1cccc(C)c1NC(=O)N1CCC(c2cc(N)on2)CC1` reads 660 s.
The result for `COc1ccc2c(c1)C1(CCN(C(=O)Nc3cccc(C)c3)C1)C(=O)N2C` (centres undefined) reads 809 s; that for `Cc1ccc(C)c(NC(=O)C2CCCN2S(=O)(=O)c2ccc3c(c2)CCCC(=O)N3)c1` (centres undefined), 810 s; that for `Cc1cc(C)cc(N2CCC(NC(=O)c3ccc(Br)o3)C2=O)c1` (centres undefined), 894 s.
The molecule `Cn1cc(NC(=O)Nc2ccc(F)c(F)c2)c2ccccc21` registered an RP-LC retention time of 848 s.
The result for `COC(=O)c1c(NCc2cccs2)c2cccc(Cl)c2[nH]c1=O` reads 764 s; that for `CCN1CC(c2nc(-c3ccccc3)no2)C2(CCCC2)C1` (centres undefined), 709 s.
Molecule `COc1ccc(N2CCN(c3cc(SCC(=O)Nc4ccc5c(c4)OCO5)ncn3)CC2)cc1` had an RP-LC retention time of 900 s.
